For the test, the system named is CD2F1 mice, L1210 leukemia ip, survival T/C. The test is described as follows: NCI In Vivo Anticancer Drug Screen. Data for tumor model L1210 Leukemia (intraperitoneal) in CD2F1 (CDF1) mice. Conditions: higher = longer survival. In outline:
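Activity against a transplanted murine tumor was judged by comparing the compound group with a vehicle group. The outcome in the treated animals was divided by that in the controls.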

The mark [1] stands for this setting: endpoint: mean survival time, dose: 100.0 mg/kg/injection, schedule: Q01DX001 (ip), vehicle: saline with Tween-80.
Setting [2] is: endpoint: mean survival time, dose: 200.0 mg/kg/injection, schedule: Q01DX001 (ip), vehicle: saline with Tween-80.
The mark [3] stands for this setting: endpoint: mean survival time, dose: 400.0 mg/kg/injection, schedule: Q01DX001 (ip), vehicle: saline with Tween-80.
The mark [4] stands for this setting: endpoint: mean survival time, dose: 12.5 mg/kg/injection, schedule: Q01DX005 (ip), vehicle: water.
[5] abbreviates: endpoint: mean survival time, dose: 25.0 mg/kg/injection, schedule: Q01DX005 (ip), vehicle: water.
Where [6] appears, read: endpoint: mean survival time, dose: 50.0 mg/kg/injection, schedule: Q01DX005 (ip), vehicle: water.
The mark [7] stands for this setting: endpoint: mean survival time, dose: 100.0 mg/kg/injection, schedule: Q01DX005 (ip), vehicle: water.
[8] abbreviates: endpoint: mean survival time, dose: 200.0 mg/kg/injection, schedule: Q01DX005 (ip), vehicle: water.

“And” between values parts separate entries of the source, which are not always exact repeats. Identical values can stand only once. Inconclusive results and toxic doses are left out.

With `CNNCc1ccc(C(=O)NC(C)C)cc1`, the T/C was 96 % of control (endpoint: mean survival time, dose: 3.13 mg/kg/injection, schedule: Q01DX010 (ip), vehicle: saline); 106 % of control (endpoint: mean survival time, dose: 6.25 mg/kg/injection, schedule: Q01DX010 (ip), vehicle: saline); 103 % of control (endpoint: mean survival time, dose: 6.25 mg/kg/injection, schedule: Q01DX010 (sc), vehicle: saline); 108 % of control (endpoint: mean survival time, dose: 12.5 mg/kg/injection, schedule: Q01DX010 (ip), vehicle: saline); 120 % of control (endpoint: mean survival time, dose: 25.0 mg/kg/injection, schedule: Q01DX010 (oral), vehicle: saline); 116 % of control (endpoint: mean survival time, dose: 25.0 mg/kg/injection, schedule: Q01DX010 (sc), vehicle: saline). For the same compound, the T/C is 110 % of control (endpoint: mean survival time, dose: 29.7 mg/kg/injection, schedule: Q01DX009 (ip), vehicle: saline); 100 % of control (endpoint: mean survival time, dose: 38.0 mg/kg/injection, schedule: Q03DX004 (ip), vehicle: saline); 120 % of control (endpoint: mean survival time, dose: 50.0 mg/kg/injection, schedule: Q01DX010 (sc), vehicle: saline); 112 % of control (endpoint: mean survival time, dose: 100.0 mg/kg/injection, schedule: Q04DX003 (ip), vehicle: saline); 159 % of control and 170 % of control (endpoint: mean survival time, dose: 133.0 mg/kg/injection, schedule: Q01DX009 (ip), vehicle: saline); 108 % of control (endpoint: mean survival time, dose: 150.0 mg/kg/injection, schedule: Q03DX004 (ip), vehicle: saline). Besides, the T/C (endpoint: mean survival time, dose: 200.0 mg/kg/injection, schedule: Q01DX007 (ip), vehicle: saline) is 179 % of control.
Turning to `O=C(O)CC(=O)O.[NH-]C1CCCCC1[NH-].[Pt+2]` (stereo not given), the T/C runs as follows: (endpoint: mean survival time, dose: 1.25 mg/kg/injection, schedule: Q01DX009 (ip), vehicle: saline sonified) 110 % of control; (endpoint: mean survival time, dose: 2.5 mg/kg/injection, schedule: Q01DX009 (ip), vehicle: saline sonified) 119 % of control; (endpoint: mean survival time, dose: 10.0 mg/kg/injection, schedule: Q01DX001 (ip), vehicle: suspension in saline) 124 % of control; (endpoint: mean survival time, dose: 10.0 mg/kg/injection, schedule: Q01DX009 (oral), vehicle: saline) 98 % of control; (endpoint: mean survival time, dose: 20.0 mg/kg/injection, schedule: Q01DX001 (oral), vehicle: saline) 98 % of control; (endpoint: mean survival time, dose: 20.0 mg/kg/injection, schedule: Q01DX009 (oral), vehicle: saline) 109 % of control. Besides, the T/C is, setting by setting: (endpoint: mean survival time, dose: 40.0 mg/kg/injection, schedule: Q01DX001 (oral), vehicle: saline) 98 % of control; (endpoint: mean survival time, dose: 40.0 mg/kg/injection, schedule: Q01DX009 (oral), vehicle: saline) 100 % of control; (endpoint: mean survival time, dose: 80.0 mg/kg/injection, schedule: Q01DX001 (oral), vehicle: saline) 100 % of control; (endpoint: mean survival time, dose: 160.0 mg/kg/injection, schedule: Q01DX001 (oral), vehicle: saline) 100 % of control; (endpoint: mean survival time, dose: 320.0 mg/kg/injection, schedule: Q01DX001 (oral), vehicle: saline) 100 % of control; (endpoint: mean survival time, dose: 320.0 mg/kg/injection, schedule: Q01DX009 (oral), vehicle: saline) 120 % of control. In addition, for the setting “endpoint: median survival time, dose: 4.0 mg/kg/injection, schedule: Q01DX009 (ip), vehicle: dextrose”, the T/C was 110 % of control.
Consider `COC(=O)C1(C)CCCC2(C)C3CCC(C)(CCO)CC3C(O)CC12` (stereo not given), for which the T/C by setting is: (endpoint: mean survival time, dose: 100.0 mg/kg/injection, schedule: Q01DX001 (ip), vehicle: saline sonified) 102 % of control; under setting [1], 96 % of control; (endpoint: mean survival time, dose: 200.0 mg/kg/injection, schedule: Q01DX001 (ip), vehicle: saline sonified) 101 % of control; under setting [2], 101 % of control; (endpoint: mean survival time, dose: 400.0 mg/kg/injection, schedule: Q01DX001 (ip), vehicle: saline sonified) 93 % of control; under setting [3], 105 % of control.
For `Nc1ncnc2cc3ncn(C4OC(CO)C(O)C4O)c3cc12` (stereo not given), the T/C runs as follows: under setting [4], 100 % of control; under setting [5], 104 % of control; under setting [6], 106 % of control; under setting [7], 100 % of control; under setting [8], 100 % of control.
As for `C1=C\C[n+]2ccccc2-c2cccc[n+]2C/1`, the T/C runs as follows: (endpoint: mean survival time, dose: 7.5 mg/kg/injection, schedule: Q01DX001 (ip), vehicle: saline) 95 % of control; (endpoint: mean survival time, dose: 7.5 mg/kg/injection, schedule: Q04DX003 (ip), vehicle: saline) 96 % of control; (endpoint: mean survival time, dose: 15.0 mg/kg/injection, schedule: Q01DX001 (ip), vehicle: saline) 95 % of control; (endpoint: mean survival time, dose: 15.0 mg/kg/injection, schedule: Q04DX003 (ip), vehicle: saline) 97 % of control; (endpoint: mean survival time, dose: 30.0 mg/kg/injection, schedule: Q01DX001 (ip), vehicle: saline) 98 % of control.
In the case of `COC(=O)C1CCC2C3CC=C4CC(O)CCC4(C)C3CCC12C` (stereo not given), the T/C was 98 % of control under setting [1], 93 % of control under setting [2] and 93 % of control under setting [3].
Regarding `CC1(C)C(=O)OC(n2ccc(=O)[nH]c2=O)C1=O` (stereo not given), the T/C was 103 % of control (endpoint: median survival time, dose: 12.5 mg/kg/injection, schedule: Q01DX005 (ip), vehicle: saline); 103 % of control (endpoint: median survival time, dose: 25.0 mg/kg/injection, schedule: Q01DX005 (ip), vehicle: saline); 101 % of control (endpoint: median survival time, dose: 50.0 mg/kg/injection, schedule: Q01DX005 (ip), vehicle: saline); 103 % of control (endpoint: median survival time, dose: 100.0 mg/kg/injection, schedule: Q01DX005 (ip), vehicle: saline); 103 % of control (endpoint: median survival time, dose: 200.0 mg/kg/injection, schedule: Q01DX005 (ip), vehicle: saline).
On to `CN1CCc2c(c3ccccc3c3ccccc23)C1`, for which the T/C is 104 % of control (endpoint: mean survival time, dose: 3.12 mg/kg/injection, schedule: Q01DX009 (ip), vehicle: Klucel (hydroxypropylcellulose) (HPC)); 101 % of control (endpoint: mean survival time, dose: 6.25 mg/kg/injection, schedule: Q01DX009 (ip), vehicle: Klucel (hydroxypropylcellulose) (HPC)); 97 % of control (endpoint: mean survival time, dose: 12.5 mg/kg/injection, schedule: Q01DX009 (ip), vehicle: Klucel (hydroxypropylcellulose) (HPC)); 95 % of control (endpoint: mean survival time, dose: 25.0 mg/kg/injection, schedule: Q01DX009 (ip), vehicle: Klucel (hydroxypropylcellulose) (HPC)); 106 % of control (endpoint: mean survival time, dose: 50.0 mg/kg/injection, schedule: Q01DX009 (ip), vehicle: Klucel (hydroxypropylcellulose) (HPC)); 113 % of control (endpoint: mean survival time, dose: 100.0 mg/kg/injection, schedule: Q01DX009 (ip), vehicle: Klucel (hydroxypropylcellulose) (HPC)).
On to `CCOC(=O)c1nc2cc(C)c(C)cc2[nH]c1=O`, for which the T/C (endpoint: mean survival time, dose: 100.0 mg/kg/injection, schedule: Q01DX009 (ip), vehicle: saline with Tween-80) is 95 % of control; the T/C (endpoint: mean survival time, dose: 200.0 mg/kg/injection, schedule: Q01DX009 (ip), vehicle: saline with Tween-80) was 89 % of control; the T/C (endpoint: mean survival time, dose: 400.0 mg/kg/injection, schedule: Q01DX009 (ip), vehicle: saline with Tween-80) was 100 % of control.
For `NC(CO)C(O)C(O)C(O)CO` (stereo not given), the T/C is 106 % of control (endpoint: mean survival time, dose: 100.0 mg/kg/injection, schedule: Q01DX001 (ip), vehicle: saline); 98 % of control (endpoint: mean survival time, dose: 200.0 mg/kg/injection, schedule: Q01DX001 (ip), vehicle: saline); 103 % of control (endpoint: mean survival time, dose: 400.0 mg/kg/injection, schedule: Q01DX001 (ip), vehicle: saline).
In the case of `C=Cn1cnc2c(N)ncnc21` (tested in a mixture with another compound), the T/C is 101 % of control under setting [4]; 104 % of control under setting [5]; 101 % of control under setting [6]; 101 % of control under setting [7]; 104 % of control under setting [8].
Take `C=C(Br)CSC#N`: the T/C reads like this: (endpoint: mean survival time, dose: 100.0 mg/kg/injection, schedule: Q04DX003 (ip), vehicle: saline with Tween-80) 96 % of control; (endpoint: mean survival time, dose: 200.0 mg/kg/injection, schedule: Q04DX003 (ip), vehicle: saline with Tween-80) 112 % of control; (endpoint: mean survival time, dose: 400.0 mg/kg/injection, schedule: Q04DX003 (ip), vehicle: saline with Tween-80) 96 % of control.
